Test results from patent US9694087B2, “Development of novel macromolecule transduction domain with improved cell permeability and method for using same” (priority 2011, dated 2017).
Where a SMILES comes first, the peptide text is derived from it. Where no end group is shown, it is not given here. The star is where a group is joined. X1 = O=C(C=Cc1ccc(O)cc1)*

How the values were obtained:
HeLa cells = assay: Visible cell permeability by confocal microscopy, cervix adenocarcinoma cells; assay type: cell-based, human; settings: 5 μM, 1 hour, FIG. 10
Procedure: Cell permeability of HeLa cells (HeLa cell, Human cervix adenocarcinoma, Cat No. CCL-2, ATCC, USA) derived from Human cervix adenocarcinoma as cancer-derived cells was compared using a confocal microscope (Carl Zeisse, Germany).
Particularly, before a test, the HeLa cells were cultured in a 12-well culture plate with a glass cover slip for 24 hours. The HeLa cells were cultured in a DMEM medium containing 10% fetal bovine serum (FBS), and 1% penicillin/streptomycin (10,000 units penicillin and 10,000 μg/mL streptomycin, invitrogen), in a humidified atmosphere with 5% CO2 at 37° C. After 5 μM of peptides was treated to the […] for 1 hour, the cells were fixed with 4% paraformaldehyde (PFA) at room temperature for 20 minutes to observe the cell permeability using a confocal microscope.
To directly detect internalized MTD-FITC, the cells were washed three times with phosphoric acid buffer and 5 μM of 4′,6-diamidino-2-phenylindole (DAPI), which is a nucleus fluorescence staining solution, was counter-stained. […] In addition, an original form of the cell was observed using a nomarski filter with a confocal microscope, and FITC fluorescence and DAPI fluorescence were observed using a filter suitable for a fluorochrome.

human skin = assay: Primary stimulus test using human skin (patch test); assay type: in vivo; settings: overall evaluation from Table 4
Procedure: To confirm safety of the modified MTD (M1067) synthesized in Example 4, the modified MTD (M1067)-coumaric acid and the modified MTD (M1067)-acetyl pentapeptide synthesized in Examples 12-1 and 12-2, a primary stimulus test using human skin was performed. The test was conducted by a specialized clinical research organization, Dermapro, and the clinical composition was prepared as will be described below. 30 or more subjects meeting standards for the clinical test and not falling under exclusion standards were selected. Sample materials were applied to backs of the subjects, and removed after 48 hours. The test sites were observed 30 minutes and 24 hours later, after the removal.
The skin evaluation was performed by the Frosch & Kligman method (Frosch P. J and Kligman A. M. J Am Acad Dermatol, 1(1):35-41 (1979)) and standards shown in Table 3 reflecting the Cosmetic, Toiletry, and Fragrance Association (CTFA) guidelines (The Cosmetic, Toiletry and Fragrance Association, Inc. Washington, D.C. 20005 (1981)), average degrees of reaction after 48 and 72 hours were compared, and results were determined based on the average degree of reaction of each composition.

ICR mice = assay: In vivo epithelial tissue (skin) permeability by confocal microscopy; design: species or system mouse; settings: FITC-labelled, applied on gauze to back skin, 1, 3, 6 and 12 hours; FIG. 12
Procedure: After 1, 3, 6, and 12 hours, the mice were sacrificed by cervical dislocation, and skin at the drug-applied parts was extracted. Afterward, the skin was put in 4% paraformaldehyde for 24 hours to fix a tissue and then prepared in a 6 μm cryosection to form a slide. […] The stained tissue was washed again three times with PBS buffer for 10 minutes, fixed with mounting media, and observed by confocal microscopy.

| Compound | intracellular localization of the FITC-peptide (HeLa cells) | evaluation in the human skin primary stimulus test (human skin) | epithelial permeation (ICR mice) |
| --- | --- | --- | --- |
| M1103: modified MTD having an amino acid sequence of SEQ. ID. NO: 17 (MRLALPVLLLA; MTD 1103 Amino Acid Sequence) | apparently distributed into a cytoplasm | – | – |
| Met Arg Ala Ala Ala Pro Ala Val Ala Ala Lys*Ther Ther Lys Ser [modified MTD (M1067)-acetyl pentapeptide] | – | low-stimuli materials | – |
| CSCC[C@H](NC(=O)[C@H](CCCNC(=N)N)NC(=O)[C@H](C)NC(=O)[C@H](C)NC(=O)[C@H](C)NC(=O)[C@@H]1CCCN1C(=O)[C@H](C)NC(=O)[C@@H](NC(=O)[C@H](C)NC(=O)[C@H](C)NC(=O)C=Cc1ccc(O)cc1)C(C)C)C(=O)O [modified MTD (M1067)-coumaric acid] (X1-AAVAPAAARM-OH) | – | low-stimuli materials | – |
| CSCC[C@H](N)C(=O)N[C@@H](CCCNC(=N)N)C(=O)N[C@@H](C)C(=O)N[C@@H](C)C(=O)N[C@@H](C)C(=O)N1CCC[C@H]1C(=O)N[C@@H](C)C(=O)N[C@H](C(=O)N[C@@H](C)C(=O)N[C@@H](C)C(=O)O)C(C)C [M1067] (H-MRAAAPAVAA-OH) | – | low-stimuli materials | – |
| GRKKRRQRRR (also: FITC label, place not given here) [Tat, used FITC-labelled, reference compound] | attached to an outside of the cell membrane | – | epithelial permeation was not induced |
